From ChEMBL document CHEMBL2434822, “Discovery of pteridin-7(8H)-one-based irreversible inhibitors targeting the epidermal growth factor receptor (EGFR) kinase T790M/L858R mutant” (J Med Chem, 2013)
One block for each compound: values may come before it. Active and inactive are the calls of the source. The calls are words filed in the database; no cut-off is given here.

Assays:
[1] = molecular target: Epidermal growth factor receptor (Homo sapiens, UniProt P00533, L858R); assay: Inhibition of EGFR L858R mutant (unknown origin) using Tyr 4 peptide as substrate after 1.5 hrs by FRET-based Z'-LYTE assay; format: protein assay
[2] = molecular target: T1, Epidermal growth factor receptor (Homo sapiens, UniProt P00533); assay: Inhibition of wild type EGFR (unknown origin) using Tyr 4 peptide as substrate after 1.5 hrs by FRET-based Z'-LYTE assay
[3] = Antiproliferative activity against gefitinib-sensitive human HCC827 cells harboring EGFR E746 to A750 deletion after 72 hrs by MTS assay; format: functional, cell-based; details: HCC827, 72 h
NCI-H1975 [4] = assay: cells; format: functional, cell-based; details: Homo sapiens, NCI-H1975, 72 h
[5] = molecular target: Epidermal growth factor receptor (Homo sapiens, UniProt P00533, L858R/T790M); assay: (§1) Inhibition of EGFR T790M/L858R double mutant (unknown origin) using Tyr 4 peptide as substrate after 1.5 hrs by FRET-based Z'-LYTE assay; format: protein assay
[6] = molecular target: Epidermal growth factor receptor (Homo sapiens, UniProt P00533, T790M/L858R); assay: as §1; format: protein assay
[7] = molecular target: T2, Tyrosine-protein kinase JAK3 (Homo sapiens) (UniProt P52333); details: 1 uM
T2 sequence (whole entry): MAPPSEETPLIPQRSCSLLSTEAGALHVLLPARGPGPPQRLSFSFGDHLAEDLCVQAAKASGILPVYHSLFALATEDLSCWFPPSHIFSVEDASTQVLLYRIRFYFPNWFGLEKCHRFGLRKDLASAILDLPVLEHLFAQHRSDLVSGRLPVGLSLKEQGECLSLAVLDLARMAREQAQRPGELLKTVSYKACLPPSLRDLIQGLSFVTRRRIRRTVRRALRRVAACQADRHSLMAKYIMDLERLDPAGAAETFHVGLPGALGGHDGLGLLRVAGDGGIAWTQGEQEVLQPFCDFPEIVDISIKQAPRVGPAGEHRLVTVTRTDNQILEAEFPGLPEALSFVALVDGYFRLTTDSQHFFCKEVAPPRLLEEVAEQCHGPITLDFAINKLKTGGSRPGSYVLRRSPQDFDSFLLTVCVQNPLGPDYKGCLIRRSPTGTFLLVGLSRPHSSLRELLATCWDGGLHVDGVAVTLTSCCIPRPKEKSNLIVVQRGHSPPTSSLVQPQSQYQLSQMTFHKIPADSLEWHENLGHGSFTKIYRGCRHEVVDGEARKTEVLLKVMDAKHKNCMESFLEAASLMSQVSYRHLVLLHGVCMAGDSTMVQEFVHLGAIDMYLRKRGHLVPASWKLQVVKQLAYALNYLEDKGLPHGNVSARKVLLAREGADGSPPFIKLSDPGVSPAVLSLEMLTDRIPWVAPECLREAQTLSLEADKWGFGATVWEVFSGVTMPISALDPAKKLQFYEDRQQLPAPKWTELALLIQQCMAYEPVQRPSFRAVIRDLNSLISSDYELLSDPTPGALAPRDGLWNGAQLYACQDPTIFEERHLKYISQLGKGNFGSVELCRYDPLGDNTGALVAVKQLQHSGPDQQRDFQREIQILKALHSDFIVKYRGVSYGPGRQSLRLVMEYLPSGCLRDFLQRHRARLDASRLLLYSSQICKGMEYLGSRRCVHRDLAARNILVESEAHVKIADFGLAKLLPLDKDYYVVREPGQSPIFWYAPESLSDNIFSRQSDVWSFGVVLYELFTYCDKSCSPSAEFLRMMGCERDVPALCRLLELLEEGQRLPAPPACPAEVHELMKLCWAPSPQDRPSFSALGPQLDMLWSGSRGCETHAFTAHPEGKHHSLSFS
Description: Inhibition of JAK3 JH1 catalytic domain (unknown origin) at 1 uM after 1 hr relative to control

[8] = molecular target: Tyrosine-protein kinase BTK (Homo sapiens) (UniProt Q06187); details: 1 uM
Tyrosine-protein kinase BTK (Homo sapiens), sequence (Q06187 whole entry): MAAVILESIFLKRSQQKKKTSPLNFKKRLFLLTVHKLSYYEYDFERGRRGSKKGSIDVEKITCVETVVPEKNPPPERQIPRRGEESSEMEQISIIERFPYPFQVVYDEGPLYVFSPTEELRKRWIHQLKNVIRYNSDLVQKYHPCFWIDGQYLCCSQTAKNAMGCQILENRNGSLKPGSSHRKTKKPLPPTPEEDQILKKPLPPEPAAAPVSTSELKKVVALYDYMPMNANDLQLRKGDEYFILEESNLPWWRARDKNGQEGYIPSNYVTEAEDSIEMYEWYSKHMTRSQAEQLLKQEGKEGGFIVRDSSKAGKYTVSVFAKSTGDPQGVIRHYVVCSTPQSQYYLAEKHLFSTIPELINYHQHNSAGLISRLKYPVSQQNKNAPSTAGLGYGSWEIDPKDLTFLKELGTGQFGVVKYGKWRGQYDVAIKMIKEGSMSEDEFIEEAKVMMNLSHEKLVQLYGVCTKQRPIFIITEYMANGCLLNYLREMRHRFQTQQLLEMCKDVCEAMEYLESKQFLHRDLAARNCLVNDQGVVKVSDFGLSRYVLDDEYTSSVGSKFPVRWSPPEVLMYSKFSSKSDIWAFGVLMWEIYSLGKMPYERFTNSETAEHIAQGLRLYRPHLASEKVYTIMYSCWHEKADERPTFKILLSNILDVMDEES
Description: Inhibition of BTK (unknown origin) at 1 uM after 1 hr relative to control

[9] = tested on: Epidermal growth factor receptor (Homo sapiens), P00533 [L858R,T790M]; details: 1 uM
[10] = tested on: Epidermal growth factor receptor (Homo sapiens), P00533 [T790M]; details: 1 uM
NCI-H1975 [11] = assay: Antitumor activity against human NCI-H1975 cells xenografted in nude mouse assessed as induction of tumor stasis at 20 mg/kg, ip qd for 14 days; format: functional, organism-based; design: dose 20 mg/kg
[12] = molecular target: Receptor tyrosine-protein kinase erbB-2 (Homo sapiens) (UniProt P04626); details: 1 uM
Receptor tyrosine-protein kinase erbB-2 (Homo sapiens), sequence (P04626 whole entry): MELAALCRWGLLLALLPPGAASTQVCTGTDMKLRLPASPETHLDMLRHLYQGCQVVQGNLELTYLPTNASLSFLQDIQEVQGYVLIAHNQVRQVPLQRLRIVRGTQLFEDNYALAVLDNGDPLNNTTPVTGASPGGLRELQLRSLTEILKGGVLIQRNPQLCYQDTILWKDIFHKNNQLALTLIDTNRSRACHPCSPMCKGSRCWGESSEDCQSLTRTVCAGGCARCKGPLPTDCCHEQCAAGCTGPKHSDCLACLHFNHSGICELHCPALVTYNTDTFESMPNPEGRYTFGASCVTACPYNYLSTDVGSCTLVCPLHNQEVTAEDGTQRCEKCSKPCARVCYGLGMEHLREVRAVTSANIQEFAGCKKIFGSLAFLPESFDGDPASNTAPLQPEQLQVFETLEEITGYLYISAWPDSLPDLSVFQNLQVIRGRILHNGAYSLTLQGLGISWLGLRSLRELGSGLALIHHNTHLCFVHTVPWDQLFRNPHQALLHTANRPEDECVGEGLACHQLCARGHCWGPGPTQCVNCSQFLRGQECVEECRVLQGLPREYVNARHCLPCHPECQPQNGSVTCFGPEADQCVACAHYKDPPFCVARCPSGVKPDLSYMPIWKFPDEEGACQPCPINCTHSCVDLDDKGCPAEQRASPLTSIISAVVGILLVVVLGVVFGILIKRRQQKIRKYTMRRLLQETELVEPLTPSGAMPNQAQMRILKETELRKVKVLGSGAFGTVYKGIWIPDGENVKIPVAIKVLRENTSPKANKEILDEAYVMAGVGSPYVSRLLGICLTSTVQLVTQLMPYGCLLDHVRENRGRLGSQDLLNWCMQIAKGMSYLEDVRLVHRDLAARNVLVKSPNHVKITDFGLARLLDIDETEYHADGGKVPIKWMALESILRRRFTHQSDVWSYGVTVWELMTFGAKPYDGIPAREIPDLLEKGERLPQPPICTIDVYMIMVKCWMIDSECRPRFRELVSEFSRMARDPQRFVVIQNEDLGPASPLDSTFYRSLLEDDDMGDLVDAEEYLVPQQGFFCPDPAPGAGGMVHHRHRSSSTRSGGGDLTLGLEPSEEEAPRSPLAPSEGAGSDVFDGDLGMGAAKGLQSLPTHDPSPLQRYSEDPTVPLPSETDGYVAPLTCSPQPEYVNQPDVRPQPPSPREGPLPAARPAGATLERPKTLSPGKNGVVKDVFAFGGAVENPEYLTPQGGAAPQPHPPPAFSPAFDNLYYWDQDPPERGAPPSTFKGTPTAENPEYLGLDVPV
Description: Inhibition of HER2 (unknown origin) at 1 uM after 1 hr relative to control

[13] = tested on: Epidermal growth factor receptor (Homo sapiens), P00533 [L858R]; details: 1 uM
[14] = Toxicity in ip dosed nude mouse xenografted with human NCI-H1975 cells expressing T790M/L858R mutation administered qd for 14 days; format: organism-based; details: in vivo
Mus musculus [15] = assay: Toxicity in nude mouse xenografted with human NCI-H1975 cells expressing T790M/L858R mutation assessed as mortality at 20 to 40 mg/kg, ip qd for 14 days; format: organism-based; design: dose 20-40 mg/kg, route intraperitoneal; details: in vivo, 336 h
Mus musculus [16] = assay: Toxicity in nude mouse xenografted with human NCI-H1975 cells expressing T790M/L858R mutation assessed as body weight loss at 20 to 40 mg/kg, ip qd for 14 days relative to control; format: organism-based; design: dose 20-40 mg/kg, route intraperitoneal; details: in vivo, 336 h
NCI-H1975 [17] = assay: Antitumor activity against human NCI-H1975 cells xenografted in nude mouse assessed as tumor growth inhibition at 20 mg/kg, ip qd for 14 days; format: functional, organism-based; design: dose 20 mg/kg
[18] = molecular target: Receptor tyrosine-protein kinase erbB-4 (Homo sapiens) (UniProt Q15303); details: 1 uM
Receptor tyrosine-protein kinase erbB-4 (Homo sapiens), sequence (Q15303 whole entry): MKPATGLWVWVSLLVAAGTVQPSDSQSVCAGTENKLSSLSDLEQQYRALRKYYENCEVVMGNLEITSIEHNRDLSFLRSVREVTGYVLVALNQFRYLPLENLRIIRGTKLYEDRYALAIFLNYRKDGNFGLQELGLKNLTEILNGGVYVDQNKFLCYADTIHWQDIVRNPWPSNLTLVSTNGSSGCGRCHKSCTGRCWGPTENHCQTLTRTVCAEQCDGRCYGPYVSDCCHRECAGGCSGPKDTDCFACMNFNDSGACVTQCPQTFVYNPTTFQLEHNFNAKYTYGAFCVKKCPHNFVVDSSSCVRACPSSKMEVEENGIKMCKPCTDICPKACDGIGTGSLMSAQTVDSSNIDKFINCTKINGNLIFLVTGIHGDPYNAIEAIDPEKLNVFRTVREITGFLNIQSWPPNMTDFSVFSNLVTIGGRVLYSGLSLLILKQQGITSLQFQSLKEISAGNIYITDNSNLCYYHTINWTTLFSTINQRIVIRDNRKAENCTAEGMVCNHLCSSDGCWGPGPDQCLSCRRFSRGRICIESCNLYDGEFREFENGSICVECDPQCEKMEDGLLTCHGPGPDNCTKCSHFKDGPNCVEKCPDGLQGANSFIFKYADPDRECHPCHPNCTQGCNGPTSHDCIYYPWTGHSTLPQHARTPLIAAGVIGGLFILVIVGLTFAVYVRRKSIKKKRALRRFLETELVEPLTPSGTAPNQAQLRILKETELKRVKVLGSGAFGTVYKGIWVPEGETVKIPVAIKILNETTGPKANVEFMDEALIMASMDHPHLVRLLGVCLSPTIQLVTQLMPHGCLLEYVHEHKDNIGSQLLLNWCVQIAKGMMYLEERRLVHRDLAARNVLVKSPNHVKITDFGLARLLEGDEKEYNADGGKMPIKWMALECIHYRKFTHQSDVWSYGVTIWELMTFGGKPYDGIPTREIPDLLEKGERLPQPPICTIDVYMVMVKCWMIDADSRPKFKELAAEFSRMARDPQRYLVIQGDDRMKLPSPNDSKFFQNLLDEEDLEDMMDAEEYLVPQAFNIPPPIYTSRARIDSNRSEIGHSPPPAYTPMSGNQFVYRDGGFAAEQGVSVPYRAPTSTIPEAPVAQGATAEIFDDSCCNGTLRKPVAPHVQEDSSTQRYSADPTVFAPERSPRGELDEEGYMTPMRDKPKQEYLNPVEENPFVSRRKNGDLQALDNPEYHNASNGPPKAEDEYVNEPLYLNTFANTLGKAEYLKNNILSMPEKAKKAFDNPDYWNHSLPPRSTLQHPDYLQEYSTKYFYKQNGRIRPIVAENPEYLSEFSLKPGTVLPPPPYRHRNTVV
Description: Inhibition of HER4 (unknown origin) at 1 uM after 1 hr relative to control

[19] = molecular target: T1, Epidermal growth factor receptor; details: 1 uM
Description: Inhibition of EGFR (unknown origin) at 1 uM after 1 hr relative to control

Compound: CCC(=O)Nc1ccc(-n2c(=O)cnc3cnc(Nc4ccc(OC)cc4)nc32)cc1
IC50 [1]: Not Active
IC50 [2]: Not Active
IC50 [3]: > 10000 nM
IC50 (NCI-H1975 [4]): > 10000 nM
IC50 [6]: Not Active

Compound: C=CC(=O)Nc1ccc(-n2c(=O)c(C)nc3cnc(Nc4ccc(OC)cc4)nc32)cc1
IC50 ([1]; read-out: IC50): 7170 nM
IC50 ([2]; read-out: IC50): 16300 nM
IC50 [3]: 2760 nM
IC50 (NCI-H1975 [4]): > 10000 nM
IC50 [5]: 35000 nM

Compound: COc1ccc(Nc2ncc3ncc(=O)n(-c4cccc(N)c4)c3n2)cc1
IC50 ([1]; read-out: IC50): 55900 nM
IC50 [2]: Not Active
IC50 [3]: > 10000 nM
IC50 (NCI-H1975 [4]): > 10000 nM
IC50 [5]: 21300 nM

Compound: C=CC(=O)Nc1ccc(-n2c(=O)cnc3cnc(Nc4ccccc4)nc32)cc1
IC50 [1]: Not Active
IC50 [2]: Not Active
IC50 [3]: > 10000 nM
IC50 (NCI-H1975 [4]): > 10000 nM
IC50 [6]: Not Active

Compound: C=CC(=O)Nc1cccc(-n2c(=O)cnc3cnc(Nc4ccc(N5CCN(C)CC5)cc4OC)nc32)c1
residual activity [7]: < 10%
residual activity [8]: < 1%
IC50 ([1]; read-out: IC50): 2.56 nM
IC50 ([2]; read-out: IC50): 3.82 nM
residual activity [9]: 0.1%
residual activity [10]: 0.35%
Activity (NCI-H1975 [11]): Active
residual activity [12]: < 10%
residual activity [13]: 0.3%
MTD at 336 h [14]: 20 mg/kg
Activity (Mus musculus [15]): Non-toxic
IC50 [3]: 8.6 nM
Activity (Mus musculus [16]): < 5%
TGI (NCI-H1975 [17]): Active
IC50 (NCI-H1975 [4]): 59 nM
residual activity [18]: < 1%
IC50 [5]: 1.07 nM
residual activity [19]: < 10%

Compound: COc1ccc(-n2c(=O)cnc3cnc(Nc4cccc(N)c4)nc32)cc1
IC50 ([1]; read-out: IC50): 8040 nM
IC50 ([2]; read-out: IC50): 18300 nM
IC50 [3]: > 10000 nM
IC50 (NCI-H1975 [4]): > 10000 nM
IC50 [5]: 3840 nM

Now from value to compound, other results behind:

IC50 ([1]; read-out: IC50): 123 nM
IC50 ([2]; read-out: IC50): 60.4 nM
IC50 (NCI-H1975 [4]): 5900 nM
IC50 [5]: 59.1 nM
Compound: C=CC(=O)Oc1ccc(-n2c(=O)cnc3cnc(Nc4ccc(OC)cc4)nc32)cc1
IC50 [3]: 8590 nM

IC50 [1]: Not Active
IC50 [2]: Not Active
IC50 (NCI-H1975 [4]): > 10000 nM
IC50 [6]: Not Active
Compound: CCC(=O)Nc1cccc(-n2c(=O)cnc3cnc(Nc4ccc(OC)cc4)nc32)c1
IC50 [3]: > 10000 nM

IC50 ([1]; read-out: IC50): 13 nM
IC50 ([2]; read-out: IC50): 15.3 nM
IC50 (NCI-H1975 [4]): 579 nM
IC50 [5]: 4.96 nM
Compound: C=CC(=O)Nc1cccc(-n2c(=O)cnc3cnc(Nc4ccc(N5CCCC5)cc4)nc32)c1
IC50 [3]: 70.8 nM

IC50 ([1]; read-out: IC50): 70600 nM
IC50 ([2]; read-out: IC50): 33900 nM
IC50 (NCI-H1975 [4]): 1330 nM
IC50 [5]: 70200 nM
Compound: C=CC(=O)Nc1ccc(Nc2ncc3ncc(=O)n(-c4ccc(OC)cc4)c3n2)cc1
IC50 [3]: 1460 nM

IC50 ([1]; read-out: IC50): 496 nM
IC50 ([2]; read-out: IC50): 395 nM
IC50 (NCI-H1975 [4]): 2740 nM
IC50 [5]: 272 nM
Compound: C=CC(=O)Nc1ccc(-n2c(=O)cnc3cnc(Nc4ccc(N5CCN(C)CC5)cc4OC)nc32)cc1
IC50 [3]: 503 nM

IC50 ([1]; read-out: IC50): 14.8 nM
IC50 ([2]; read-out: IC50): 15.7 nM
IC50 (NCI-H1975 [4]): 298 nM
IC50 [5]: 5.12 nM
Compound: C=CC(=O)Nc1cccc(-n2c(=O)cnc3cnc(Nc4ccc(N5CCCCC5)cc4)nc32)c1
IC50 [3]: 25.3 nM

IC50 ([1]; read-out: IC50): 14 nM
IC50 ([2]; read-out: IC50): 12.5 nM
IC50 (NCI-H1975 [4]): 4080 nM
IC50 [5]: 4.53 nM
Compound: C=CC(=O)Nc1cccc(-n2c(=O)cnc3cnc(Nc4ccc(NC(C)=O)cc4)nc32)c1
IC50 [3]: 388 nM

IC50 ([1]; read-out: IC50): 49.1 nM
IC50 ([2]; read-out: IC50): 47.1 nM
IC50 (NCI-H1975 [4]): 2240 nM
IC50 [5]: 17.6 nM
Compound: C=CC(=O)Nc1cccc(-n2c(=O)cnc3cnc(Nc4ccc(Cl)cc4)nc32)c1
IC50 [3]: 175 nM

IC50 [1]: Not Active
IC50 [2]: Not Active
IC50 (NCI-H1975 [4]): 2360 nM
IC50 [6]: Not Active
Compound: C=CC(=O)Nc1cccc(Nc2ncc3ncc(=O)n(-c4ccc(OC)cc4)c3n2)c1
IC50 [3]: 1220 nM
